{
  "source": "patent US20240132484A1",
  "about": "“BROAD SPECTRUM ANTIVIRAL COMPOUNDS TARGETING THE SKI COMPLEX” (priority 2020, published 2024)",
  "key": {"[1]": {"tested_on": "cells (nuclei count)"}, "[2]": {"tested_on": "SARS2", "type": "cell-based, SARS-CoV-2", "settings": "for Percentage Infection Relative to Appropriate DMSO Control with Avg Background Subtraction: single well"}},
  "note": "Where “and” joins values, the source holds several entries; their conditions need not be identical. Equal entries are not always repeated. Where two headings read alike, the source gives them in different places.",
  "data": [
    {"compound": "CCN(CC)CCN(Cc1ccccc1)Cc1ccc(C)o1", "note": "[SILCS23]", "values": [
      {"measurement": "Relative cell count to DMSO controls, Average 1 μM", "setting": "[1]; 1 μM, toxicity data, 100=DMSO control", "result": 123.69},
      {"measurement": "Relative cell count to DMSO controls, Average 5 μM", "setting": "[1]; 5 μM, toxicity data, 100=DMSO control", "result": 129.2},
      {"measurement": "Relative cell count to DMSO controls, Average 10 μM", "setting": "[1]; 10 μM, toxicity data, 100=DMSO control", "result": 125.61},
      {"measurement": "Relative cell count to DMSO controls, Average 25 μM", "setting": "[1]; 25 μM, toxicity data, 100=DMSO control", "result": 112.58},
      {"measurement": "Relative cell count to DMSO controls, Average 50 μM", "setting": "[1]; 50 μM, toxicity data, 100=DMSO control", "result": 92.88},
      {"measurement": "Toxicity Data, Average, Mean", "setting": "[1]; Average of Exp 1-3, n 9, 1 uM", "result": 123.69, "unit": "%"},
      {"measurement": "Toxicity Data, Average, Mean", "setting": "[1]; Average of Exp 1-3, n 9, 5 uM", "result": 129.20, "unit": "%"},
      {"measurement": "Toxicity Data, Average, Mean", "setting": "[1]; Average of Exp 1-3, n 9, 10 uM", "result": 125.61, "unit": "%"},
      {"measurement": "Toxicity Data, Average, Mean", "setting": "[1]; Average of Exp 1-3, n 9, 25 uM", "result": 112.58, "unit": "%"},
      {"measurement": "Toxicity Data, Average, Mean", "setting": "[1]; Average of Exp 1-3, n 9, 50 uM", "result": 92.88, "unit": "%"},
      {"measurement": "Relative cell count to DMSO controls, Average (for correlation analysis)", "setting": "[1]; average value over the 5 tested concentrations (1 to 50 uM)", "result": 116.79},
      {"measurement": "Infection Data, Average, Mean", "setting": "[2]; Average of Exp 1-3, n 9, 1 uM", "result": 83.26, "unit": "%"},
      {"measurement": "Infection Data, Average, Mean", "setting": "[2]; Average of Exp 1-3, n 9, 5 uM", "result": 72.94, "unit": "%"},
      {"measurement": "Infection Data, Average, Mean", "setting": "[2]; Average of Exp 1-3, n 9, 10 uM", "result": 71.95, "unit": "%"},
      {"measurement": "Infection Data, Average, Mean", "setting": "[2]; Average of Exp 1-3, n 9, 25 uM", "result": 42.51, "unit": "%"},
      {"measurement": "Infection Data, Average, Mean", "setting": "[2]; Average of Exp 1-3, n 9, 50 uM", "result": 25.76, "unit": "%"},
      {"measurement": "Percentage Infection Relative to Appropriate DMSO Control with Avg Background Subtraction", "setting": "[2]; Exp 1 (SMW475), 1 uM", "result": "84.61% and 99.83% and 96.53%"},
      {"measurement": "Percentage Infection Relative to Appropriate DMSO Control with Avg Background Subtraction", "setting": "[2]; Exp 1 (SMW475), 5 uM", "result": "76.20% and 84.17% and 85.48%"},
      {"measurement": "Percentage Infection Relative to Appropriate DMSO Control with Avg Background Subtraction", "setting": "[2]; Exp 1 (SMW475), 10 uM", "result": "57.63% and 66.75% and 71.82%"},
      {"measurement": "Percentage Infection Relative to Appropriate DMSO Control with Avg Background Subtraction", "setting": "[2]; Exp 1 (SMW475), 25 uM", "result": "23.73% and 16.03% and 21.54%"},
      {"measurement": "Percentage Infection Relative to Appropriate DMSO Control with Avg Background Subtraction", "setting": "[2]; Exp 1 (SMW475), 50 uM", "result": "11.05% and 12.93% and 12.05%"},
      {"measurement": "Percentage Infection Relative to Appropriate DMSO Control with Avg Background Subtraction", "setting": "[2]; Exp 2 (SMW477), 1 uM", "result": "76.88% and 82.87% and 95.55%"},
      {"measurement": "Percentage Infection Relative to Appropriate DMSO Control with Avg Background Subtraction", "setting": "[2]; Exp 2 (SMW477), 5 uM", "result": "77.18% and 66.56% and 59.07%"},
      {"measurement": "Percentage Infection Relative to Appropriate DMSO Control with Avg Background Subtraction", "setting": "[2]; Exp 2 (SMW477), 10 uM", "result": "81.53% and 45.87% and 61.92%"},
      {"measurement": "Percentage Infection Relative to Appropriate DMSO Control with Avg Background Subtraction", "setting": "[2]; Exp 2 (SMW477), 25 uM", "result": "42.76% and 36.42% and 27.04%"},
      {"measurement": "Percentage Infection Relative to Appropriate DMSO Control with Avg Background Subtraction", "setting": "[2]; Exp 2 (SMW477), 50 uM", "result": "22.07% and 19.29% and 19.84%"},
      {"measurement": "Percentage Infection Relative to Appropriate DMSO Control with Avg Background Subtraction", "setting": "[2]; Exp 3 (SMW478), 1 uM", "result": "74.83% and 73.82% and 64.40%"},
      {"measurement": "Percentage Infection Relative to Appropriate DMSO Control with Avg Background Subtraction", "setting": "[2]; Exp 3 (SMW478), 5 uM", "result": "80.66% and 70.90% and 56.23%"},
      {"measurement": "Percentage Infection Relative to Appropriate DMSO Control with Avg Background Subtraction", "setting": "[2]; Exp 3 (SMW478), 10 uM", "result": "84.08% and 95.62% and 82.31%"},
      {"measurement": "Percentage Infection Relative to Appropriate DMSO Control with Avg Background Subtraction", "setting": "[2]; Exp 3 (SMW478), 25 uM", "result": "59.17% and 74.77% and 81.13%"},
      {"measurement": "Percentage Infection Relative to Appropriate DMSO Control with Avg Background Subtraction", "setting": "[2]; Exp 3 (SMW478), 50 uM", "result": "42.28% and 47.99% and 44.36%"},
      {"measurement": "Percentage Inhibition Average 1 μM", "setting": "[2]; SARS2, 1 μM", "result": 16.74, "unit": "%"},
      {"measurement": "Screening data (Relative infection to DMSO controls) Average 1 μM", "setting": "[2]; SARS2, 1 μM, 100=DMSO control", "result": 83.26},
      {"measurement": "Percentage Inhibition Average 5 μM", "setting": "[2]; SARS2, 5 μM", "result": 27.06, "unit": "%"},
      {"measurement": "Screening data (Relative infection to DMSO controls) Average 5 μM", "setting": "[2]; SARS2, 5 μM, 100=DMSO control", "result": 72.94},
      {"measurement": "Percentage Inhibition Average 10 μM", "setting": "[2]; SARS2, 10 μM", "result": 28.05, "unit": "%"},
      {"measurement": "Screening data (Relative infection to DMSO controls) Average 10 μM", "setting": "[2]; SARS2, 10 μM, 100=DMSO control", "result": 71.95},
      {"measurement": "Percentage Inhibition Average 25 μM", "setting": "[2]; SARS2, 25 μM", "result": 57.49, "unit": "%"},
      {"measurement": "Screening data (Relative infection to DMSO controls) Average 25 μM", "setting": "[2]; SARS2, 25 μM, 100=DMSO control", "result": 42.51},
      {"measurement": "Percentage Inhibition Average 50 μM", "setting": "[2]; SARS2, 50 μM", "result": 74.24, "unit": "%"},
      {"measurement": "Screening data (Relative infection to DMSO controls) Average 50 μM", "setting": "[2]; SARS2, 50 μM, 100=DMSO control", "result": 25.76},
      {"measurement": "Average (relative infection to DMSO over the 5 tested concentrations)", "setting": "[2]; SARS2, average over 1 to 50 uM, 100=DMSO control", "result": 59.28}
    ]}
  ]
}
